Reference: publication doi:10.1101/2024.09.17.613365, “Type-II kinase inhibitors that target Parkinson’s Disease-associated LRRK2” (bioRxiv, 2025)
Each block holds one compound with its values, some of them ahead of it.

Assays:
LRRK2^KW [1] = target: T1, LRRK2^KW (Homo sapiens, UniProt Q5S007); set-up: Differential scanning fluorometry, thermal stabilization of LRRK2 KW by compound; conditions: binder
T1 construct: Kinase and WD40 domain construct (KW)
Excerpt: Next, we evaluated the potency and selectivity of these new compounds. We performed on-target screening by measuring the thermostability increase of LRRK2^KW in the presence of the new compounds using DSF (Supporting Information Table S2). We also determined the in vitro IC50 (median inhibitory concentration) values for each of the new compounds by purifying LRRK2^RCKW and measuring its kinase activity in the presence of our new inhibitors using the PhosphoSense® activity assay from AssayQuant (Supporting Information Table S2). Finally, we estimated the kinome selectivity of each compound by measuring the thermostability increase of approximately 100 representative kinases in the presence of the compounds via DSF (Supporting Information Table S2). […] Additionally, we screened a library of published type-II inhibitors to identify those that bind to LRRK2^KW (a Kinase and WD40 domain construct of LRRK2) with high affinity.

[2] = target: T2, leucine-rich repeat kinase 2 (LRRK2) (Homo sapiens, UniProt Q5S007); test: biochemical; set-up: PhosphoSense (AssayQuant) kinase activity assay with purified LRRK2 RCKW
T2 construct: LRRK2^RCKW (ROC, COR, Kinase, WD40)
T2 sequence (Q5S007 1327-2527 limits assumed): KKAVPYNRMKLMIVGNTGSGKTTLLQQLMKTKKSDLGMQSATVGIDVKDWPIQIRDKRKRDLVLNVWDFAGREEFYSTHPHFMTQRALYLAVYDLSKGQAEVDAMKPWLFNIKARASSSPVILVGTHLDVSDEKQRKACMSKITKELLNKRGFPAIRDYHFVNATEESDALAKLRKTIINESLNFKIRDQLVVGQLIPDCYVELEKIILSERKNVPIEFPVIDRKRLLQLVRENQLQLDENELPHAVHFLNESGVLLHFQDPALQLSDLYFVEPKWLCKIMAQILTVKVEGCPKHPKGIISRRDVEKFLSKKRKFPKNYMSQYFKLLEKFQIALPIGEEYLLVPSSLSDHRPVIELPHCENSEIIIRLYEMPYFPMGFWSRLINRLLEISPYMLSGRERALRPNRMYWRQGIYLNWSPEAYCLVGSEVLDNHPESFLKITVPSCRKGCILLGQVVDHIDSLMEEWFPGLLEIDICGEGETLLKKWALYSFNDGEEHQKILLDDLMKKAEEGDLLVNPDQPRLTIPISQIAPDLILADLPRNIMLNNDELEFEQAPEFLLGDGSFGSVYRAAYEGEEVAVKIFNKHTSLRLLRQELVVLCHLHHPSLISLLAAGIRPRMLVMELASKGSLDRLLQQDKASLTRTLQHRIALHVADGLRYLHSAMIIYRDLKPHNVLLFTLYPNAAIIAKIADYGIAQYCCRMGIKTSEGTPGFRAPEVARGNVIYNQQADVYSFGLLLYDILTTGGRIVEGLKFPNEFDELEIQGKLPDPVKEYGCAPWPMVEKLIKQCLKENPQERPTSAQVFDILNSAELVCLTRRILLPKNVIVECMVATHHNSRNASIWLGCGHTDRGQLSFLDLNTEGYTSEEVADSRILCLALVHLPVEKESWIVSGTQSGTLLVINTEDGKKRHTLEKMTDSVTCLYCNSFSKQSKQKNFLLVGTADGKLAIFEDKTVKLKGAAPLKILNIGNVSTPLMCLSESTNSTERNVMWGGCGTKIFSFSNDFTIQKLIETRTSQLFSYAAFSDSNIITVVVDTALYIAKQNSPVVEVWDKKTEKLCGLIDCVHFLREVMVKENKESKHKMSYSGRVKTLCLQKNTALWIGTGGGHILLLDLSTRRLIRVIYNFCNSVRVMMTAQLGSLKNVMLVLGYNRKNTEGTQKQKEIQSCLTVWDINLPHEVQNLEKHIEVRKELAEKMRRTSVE
Excerpt: (§1) Next, we evaluated the potency and selectivity of these new compounds. We performed on-target screening by measuring the thermostability increase of LRRK2^KW in the presence of the new compounds using DSF (Supporting Information Table S2). We also determined the in vitro IC50 (median inhibitory concentration) values for each of the new compounds by purifying LRRK2^RCKW and measuring its kinase activity in the presence of our new inhibitors using the PhosphoSense® activity assay from AssayQuant (Supporting Information Table S2). Finally, we estimated the kinome selectivity of each compound by measuring the thermostability increase of approximately 100 representative kinases in the presence of the compounds via DSF (Supporting Information Table S2).

[3] = target: T2, leucine-rich repeat kinase 2 (LRRK2); test: biochemical; set-up: PhosphoSense kinase activity assay, purified LRRK2 RCKW
Excerpt: as §1

LRRK2^KW [4] = target: T1, LRRK2^KW; set-up: DSF thermal shift of purified LRRK2 KW construct with compound; conditions: binder
Excerpt: Additionally, we screened a library of published type-II inhibitors to identify those that bind to LRRK2^KW (a Kinase and WD40 domain construct of LRRK2) with high affinity. […] Next, we evaluated the potency and selectivity of these new compounds. We performed on-target screening by measuring the thermostability increase of LRRK2^KW in the presence of the new compounds using DSF (Supporting Information Table S2). We also determined the in vitro IC50 (median inhibitory concentration) values for each of the new compounds by purifying LRRK2^RCKW and measuring its kinase activity in the presence of our new inhibitors using the PhosphoSense® activity assay from AssayQuant (Supporting Information Table S2). Finally, we estimated the kinome selectivity of each compound by measuring the thermostability increase of approximately 100 representative kinases in the presence of the compounds via DSF (Supporting Information Table S2).

[5] = target: T2, leucine-rich repeat kinase 2 (LRRK2); test: PhosphoSense kinase activity assay; DSF ΔTm […] K on LRRK2^KW; type: biochemical
[6] = target: T2, leucine-rich repeat kinase 2 (LRRK2); test: as above; type: biochemical; remark: listed apart in the source

T1 sequence (Q5S007 whole entry, the tested form may be a part): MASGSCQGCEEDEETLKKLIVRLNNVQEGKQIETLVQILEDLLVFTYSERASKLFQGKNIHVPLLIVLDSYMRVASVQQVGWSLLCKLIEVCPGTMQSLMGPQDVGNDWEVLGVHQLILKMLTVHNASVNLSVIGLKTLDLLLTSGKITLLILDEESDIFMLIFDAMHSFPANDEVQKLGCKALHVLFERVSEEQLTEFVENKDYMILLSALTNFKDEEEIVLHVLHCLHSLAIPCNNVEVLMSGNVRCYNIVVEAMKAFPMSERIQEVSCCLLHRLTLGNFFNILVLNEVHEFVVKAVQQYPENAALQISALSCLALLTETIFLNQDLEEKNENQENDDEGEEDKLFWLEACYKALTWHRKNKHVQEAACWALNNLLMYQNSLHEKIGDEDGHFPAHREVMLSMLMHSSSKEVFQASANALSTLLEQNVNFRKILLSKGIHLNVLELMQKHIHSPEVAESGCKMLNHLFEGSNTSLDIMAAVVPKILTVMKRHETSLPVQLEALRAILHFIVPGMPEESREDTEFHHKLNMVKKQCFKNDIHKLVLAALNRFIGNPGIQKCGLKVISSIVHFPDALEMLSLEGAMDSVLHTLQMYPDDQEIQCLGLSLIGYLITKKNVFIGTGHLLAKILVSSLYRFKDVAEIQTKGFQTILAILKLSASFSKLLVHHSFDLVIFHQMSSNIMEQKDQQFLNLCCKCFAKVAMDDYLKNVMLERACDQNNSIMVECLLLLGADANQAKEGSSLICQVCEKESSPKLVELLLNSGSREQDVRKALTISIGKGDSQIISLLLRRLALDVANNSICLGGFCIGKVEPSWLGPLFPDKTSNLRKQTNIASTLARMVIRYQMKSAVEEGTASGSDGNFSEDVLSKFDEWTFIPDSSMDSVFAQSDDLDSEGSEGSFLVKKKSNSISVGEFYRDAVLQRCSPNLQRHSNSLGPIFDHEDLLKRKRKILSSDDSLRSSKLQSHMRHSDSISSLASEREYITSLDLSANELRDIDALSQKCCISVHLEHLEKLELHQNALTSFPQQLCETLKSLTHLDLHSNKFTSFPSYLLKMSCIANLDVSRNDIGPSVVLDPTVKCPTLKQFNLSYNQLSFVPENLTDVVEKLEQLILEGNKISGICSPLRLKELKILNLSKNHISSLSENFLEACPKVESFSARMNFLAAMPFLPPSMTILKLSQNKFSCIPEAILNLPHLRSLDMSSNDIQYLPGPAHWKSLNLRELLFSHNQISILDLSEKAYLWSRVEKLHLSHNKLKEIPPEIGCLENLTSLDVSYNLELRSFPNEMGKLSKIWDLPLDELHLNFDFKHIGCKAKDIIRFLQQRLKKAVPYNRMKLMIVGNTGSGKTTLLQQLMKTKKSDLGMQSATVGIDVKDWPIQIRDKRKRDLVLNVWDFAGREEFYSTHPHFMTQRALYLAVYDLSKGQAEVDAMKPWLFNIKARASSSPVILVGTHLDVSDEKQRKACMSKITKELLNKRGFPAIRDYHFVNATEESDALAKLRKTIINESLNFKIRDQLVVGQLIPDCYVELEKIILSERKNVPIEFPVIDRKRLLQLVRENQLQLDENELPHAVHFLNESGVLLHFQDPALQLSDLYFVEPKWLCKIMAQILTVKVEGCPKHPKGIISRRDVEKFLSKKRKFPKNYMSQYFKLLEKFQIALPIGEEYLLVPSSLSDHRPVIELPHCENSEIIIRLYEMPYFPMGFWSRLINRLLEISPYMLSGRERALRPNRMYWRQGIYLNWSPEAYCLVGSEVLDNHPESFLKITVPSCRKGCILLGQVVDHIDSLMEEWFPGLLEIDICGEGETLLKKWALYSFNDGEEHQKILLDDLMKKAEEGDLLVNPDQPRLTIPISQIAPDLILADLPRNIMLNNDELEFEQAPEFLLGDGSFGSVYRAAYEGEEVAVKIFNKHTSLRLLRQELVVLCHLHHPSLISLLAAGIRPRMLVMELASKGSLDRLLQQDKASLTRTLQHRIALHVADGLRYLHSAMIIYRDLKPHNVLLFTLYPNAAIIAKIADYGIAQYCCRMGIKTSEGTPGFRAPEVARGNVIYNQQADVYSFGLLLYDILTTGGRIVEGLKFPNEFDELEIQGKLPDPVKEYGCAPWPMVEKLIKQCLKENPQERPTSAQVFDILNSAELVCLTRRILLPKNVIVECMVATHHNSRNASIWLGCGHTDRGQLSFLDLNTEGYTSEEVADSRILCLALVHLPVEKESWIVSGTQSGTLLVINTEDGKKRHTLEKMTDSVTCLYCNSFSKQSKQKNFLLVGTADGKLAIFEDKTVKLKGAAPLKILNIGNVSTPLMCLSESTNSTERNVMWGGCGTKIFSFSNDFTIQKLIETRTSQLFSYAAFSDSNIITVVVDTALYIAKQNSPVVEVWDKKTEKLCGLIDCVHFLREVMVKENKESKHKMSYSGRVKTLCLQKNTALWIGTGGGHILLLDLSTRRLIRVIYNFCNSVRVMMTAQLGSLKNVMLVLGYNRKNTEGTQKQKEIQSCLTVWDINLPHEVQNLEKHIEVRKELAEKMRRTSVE

ΔTm [K] (LRRK2^KW [1]): 9.2 K | IC50 [2]: 989 ± 32 nM
Compound: NC(=O)C1(C(=O)N(c2cccc(-c3c[nH]c4ncnc(N5CCOCC5)c34)c2)c2cccc3c2CCC3)CC1 [compound 11, N-(2,3-dihydro-1H-inden-4-yl)-N-(3-(4-morpholino-7H-pyrrolo[2,3-d]pyrimidin-5-yl)phenyl)cyclopropane-1,1-dicarboxamide]

IC50 ([3]; read-out: IC50 [nM]): > 15000 nM | ∆Tm [K] (LRRK2^KW [4]): 2.0 K
Compound: CC(C)(C)c1cc(NC(=O)Nc2ccc3cn[nH]c3c2)n(-c2ccc3ncccc3c2)n1 [compound 53, 1-(3-(tert-butyl)-1-(quinolin-6-yl)-1H-pyrazol-5-yl)-3-(1H-indazol-6-yl)urea]

IC50 ([3]; read-out: IC50 [nM]): > 15000 nM | ∆Tm [K] (LRRK2^KW [4]): 2.0 K
Compound: Cc1ccc(-n2nc(C(C)(C)C)cc2NC(=O)Nc2ccc3cn[nH]c3c2)cc1 [compound 54, 1-(3-(tert-butyl)-1-(p-tolyl)-1H-pyrazol-5-yl)-3-(1H-indazol-6-yl)urea]

IC50 [5]: 110 ± 11 nM
Compound: Cc1cc(N(C(=O)C2(C(N)=O)CC2)c2cccc(-c3c[nH]c4ncnc(N5CCOCC5)c34)c2)ccc1F [compound 20, 20]

ΔTm [K] (LRRK2^KW [1]): 4.3 K | IC50 [2]: 3180 ± 134 nM
Compound: CN1CCc2cc(N(C(=O)C3(C(N)=O)CC3)c3cccc(-c4c[nH]c5ncnc(N6CCOCC6)c45)c3)ccc2C1 [compound 10, N-(2-methyl-1,2,3,4-tetrahydroisoquinolin-6-yl)-N-(3-(4-morpholino-7H-pyrrolo[2,3-d]pyrimidin-5-yl)phenyl)cyclopropane-1,1-dicarboxamide]

IC50 ([3]; read-out: IC50): 897 ± 120 nM | ∆Tm [K] (LRRK2^KW [4]): 10.0 K
Compound: Cc1ccc(C(=O)Nc2ccc(CN3CCN(C)CC3)c(C(F)(F)F)c2)cc1C#Cc1ccc2cn[nH]c2c1 [compound 52, 3-((1H-indazol-6-yl)ethynyl)-4-methyl-N-(4-((4-methylpiperazin-1-yl)methyl)-3-(trifluoromethyl)phenyl)benzamide]

IC50 [6]: 134 ± 5 nM
Compound: NC(=O)C1(C(=O)N(c2cccc(-c3c[nH]c4ncnc(N5CCOCC5)c34)c2)c2ccc(F)c(Br)c2F)CC1 [compound 26, RN222]
